Tests used:
Assay type in all cases: in vivo, mouse
[1] = system: NZM mice; experiment: Splenomegaly (EOS spleen mass) in NZM mice
Protocol: (§1) Age mated, female, NZM or NZW/LacJ, mice were matured for the study of lupus nephritis for a total of 7 months or 210 days at which time urine was collected for proteinuria detection. Mice with 0.5-1.0 mg/ml of urine protein as determined by an optical density-based total protein precipitation assay and cross-checked for 30-300 mg/dl of protein as determined by a stick assay were considered proteinuria positive and selected for study entry. Groups were normalized to contain a Gaussian distribution of proteinuria positive animals (i.e., ⅓ low proteinuria, ⅓ medium, ⅓ high) then randomized between groups before ear marking and taking baseline measures including urine and serum collections. A total of five mice from the total population were randomly selected for baseline kidney histology evaluation. Treatments and tests for each group are as described in FIG. 12. Briefly, with a minimum of 10 mice per group, COMPOUND A was administered at 100 mg/kg or 55 mg/kg, both twice a day and orally. […] Vehicle included 3% DMSO, 10% Solutol and 87% PBS. […] End-stage lupus nephritis was evaluated by histopathology and scored by a board certified pathologist for the assessment of total renal damage in diseased animals using the scoring method described by Smith et al (Smith, Dong et al. 2007). […] Day-98 or “end of treatment/study” represents 310 days of age for the NZM animals.

[2] = system: TNFα; experiment: Serum TNFα in NZM mice
Protocol: (§2) For the processing of serum samples for cytokine analysis, frozen plasma at −80° C. was thawed on ice, vortexed, and centrifuged for 10 minutes to remove debris and aggregates. A total of 25-50 μL of serum was used for Luminex® assays following the manufacturer's instructions. Ten different mouse cytokines were measured using the mouse cytokine 10-plex bead kit (Invitrogen, Carlsbad, Calif., no. LMC0001). Briefly, filter plates (Millipore, Billerica, Mass., no. MAIPSWU10), were pre-wet with 200 μL of wash solution (kit component) and 25 μL of beads were added per well. […]
(§3) Age mated, female, NZM or NZW/LacJ, mice were matured for the study of lupus nephritis for a total of 7 months or 210 days at which time urine was collected for proteinuria detection. Mice with 0.5-1.0 mg/ml of urine protein as determined by an optical density-based total protein precipitation assay and cross-checked for 30-300 mg/dl of protein as determined by a stick assay were considered proteinuria positive and selected for study entry. […] End-stage lupus nephritis was evaluated by histopathology and scored by a board certified pathologist for the assessment of total renal damage in diseased animals using the scoring method described by Smith et al (Smith, Dong et al. 2007). […]

[3] = system: pSTAT3; experiment: Pharmacodynamic kidney pSTAT3 (JAK2 inhibition marker) in NZM mice; settings: vs vehicle or CTX, p<0.01
Protocol: as §1

[4] = system: CCL3/MIP-1α; experiment: Serum CCL3/MIP-1α in NZM mice
Protocol: as §2, §3

[5] = system: C3; experiment: Serum complement C3 in MRL/lpr mice
Source text: MRL/lpr mice were first randomized, initial bleeds collected, and body weights recorded for baseline measurements (FIG. 1). All mice were individually ear tagged and were monitored throughout the entire experiment (e.g., “Group#-Cage letter-Mouse#”, so “3B5”=Group 3 (G3), cage B, mouse#5). Mice were age-matched and treatment started at 6-8 weeks of age. Cheek bleeds and urine collection continued weekly throughout the experiment. Mice were individually tracked for several parameters including cytokine and ANA levels, proteinuria, body mass, lymphomegaly, general health, and mortality. All parameters were evaluated bi-monthly except mortality which was monitored daily. All groups consisted of a minimum of at least 10-12 mice per group. Ex vivo experiments included flow cytometry analyses for plasma cells, serum complement C3 and ANA levels; urine protein and leukocytes, serum cytokine profiling, renal histo pathology, and determination of compound levels (pharmacokinetics (PK)) in the spleen, kidney and plasma. Mice were tracked on an individual basis. For all data, mice were grouped into populations and data graphed as mean±SEM. Bi-monthly observations and data collected were recorded for each group, except mortality which was performed daily. End-stage readouts were analyzed as described in the MATERIALS AND METHODS section (above) and in FIG. 1. […]

## CN1CCN(c2cccc(Nc3nc4c(-c5ccc(S(C)(=O)=O)cc5)cccn4n3)c2)CC1 [COMPOUND A, [8-(4-methanesulfonyl-phenyl)-[1,2,4]triazolo[1,5-a]pyridin-2-yl]-[3-(4-methyl-piperazin-1-yl)-phenyl]-amine]
[1]; 55 mg/kg
  total EOS spleen mass decrease compared to vehicle: 71.8%
[1]; 100 mg/kg
  total EOS spleen mass decrease compared to vehicle: 73.5%
[2]; 55 mg/kg
  serum TNFα decrease compared to vehicle: 92.3%
[2]; 100 mg/kg
  serum TNFα decrease compared to vehicle: 88.3%
[3]
  levels of pSTAT3 in the kidneys: significantly lower
[4]; 55 mg/kg
  serum CCL3/MIP-1α decrease compared to vehicle: 94.5%
[4]; 100 mg/kg
  serum CCL3/MIP-1α decrease compared to vehicle: 94.5%
[5]; 55 mg/kg p.o. b.i.d.
  serum C3 increase over vehicle: 51.4%
[5]; 100 mg/kg p.o. b.i.d.
  serum C3 increase over vehicle: 52.5%

Reference: patent US9023853B2, “Janus kinase 2 (JAK2) inhibitor for the treatment of lupus” (Cephalon, Inc., priority 2010, dated 2015)
